These results are taken from patent US20170280720A1, “ARGININE […] INHIBITORS AND USES THEREOF” (EPIZYME, INC., priority 2014, published 2017).

One assay deals with PRMT5 (Homo sapiens, UniProt O14744). Kind of assay: PRMT5 IC50 (Table 2; no method described). Format: biochemical. The note with it: read-out: PRMT5_ IC50.
In the next assay the target is T1, Human CARM1 (PRMT4) (Homo sapiens, UniProt Q86X55).
T1 construct: Flag-CARM1-His; made in house; host or cells: HEK 293F cells (BacMam baculovirus, pFastBacMam)
T1 sequence (Q86X55 2-585 isoform Q86X55-1): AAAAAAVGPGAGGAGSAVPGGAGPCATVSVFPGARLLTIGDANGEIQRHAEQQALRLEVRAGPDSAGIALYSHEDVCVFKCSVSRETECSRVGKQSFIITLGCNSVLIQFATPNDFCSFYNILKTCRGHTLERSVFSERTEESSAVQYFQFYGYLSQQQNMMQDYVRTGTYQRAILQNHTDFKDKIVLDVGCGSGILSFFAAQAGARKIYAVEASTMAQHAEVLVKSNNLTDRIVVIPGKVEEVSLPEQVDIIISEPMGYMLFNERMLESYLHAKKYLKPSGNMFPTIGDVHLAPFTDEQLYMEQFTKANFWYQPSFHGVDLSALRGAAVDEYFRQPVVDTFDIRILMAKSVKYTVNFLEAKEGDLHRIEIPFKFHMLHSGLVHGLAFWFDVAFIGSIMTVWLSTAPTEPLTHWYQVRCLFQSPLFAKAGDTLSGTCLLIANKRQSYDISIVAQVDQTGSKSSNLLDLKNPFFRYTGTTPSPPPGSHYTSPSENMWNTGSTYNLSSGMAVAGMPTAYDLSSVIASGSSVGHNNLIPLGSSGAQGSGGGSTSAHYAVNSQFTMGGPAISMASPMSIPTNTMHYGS
Kind of assay: CARM1 biochemical assay (3H-SAM Flashplate, peptide substrate). The note with it: read-out: CARM1_ IC50. The procedure, abridged:
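FLAG/His-tagged human CARM1 (isoform 1, Δ539-561, baculovirus-expressed), 0.25 nM, preincubated 30 min at room temperature with compound (2% DMSO) in 20 mM Bicine pH 7.6, then reacted with 30 nM 3H-SAM and 250 nM biotinylated H3 16-30 peptide (R26 monomethyl). Stopped with 300 uM cold SAM; labelled peptide captured on streptavidin Flashplate; % inhibition versus DMSO and 1 mM SAH controls fitted to a 4- or 3-parameter curve.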

PRMT5, sequence (O14744 whole entry, species assumed): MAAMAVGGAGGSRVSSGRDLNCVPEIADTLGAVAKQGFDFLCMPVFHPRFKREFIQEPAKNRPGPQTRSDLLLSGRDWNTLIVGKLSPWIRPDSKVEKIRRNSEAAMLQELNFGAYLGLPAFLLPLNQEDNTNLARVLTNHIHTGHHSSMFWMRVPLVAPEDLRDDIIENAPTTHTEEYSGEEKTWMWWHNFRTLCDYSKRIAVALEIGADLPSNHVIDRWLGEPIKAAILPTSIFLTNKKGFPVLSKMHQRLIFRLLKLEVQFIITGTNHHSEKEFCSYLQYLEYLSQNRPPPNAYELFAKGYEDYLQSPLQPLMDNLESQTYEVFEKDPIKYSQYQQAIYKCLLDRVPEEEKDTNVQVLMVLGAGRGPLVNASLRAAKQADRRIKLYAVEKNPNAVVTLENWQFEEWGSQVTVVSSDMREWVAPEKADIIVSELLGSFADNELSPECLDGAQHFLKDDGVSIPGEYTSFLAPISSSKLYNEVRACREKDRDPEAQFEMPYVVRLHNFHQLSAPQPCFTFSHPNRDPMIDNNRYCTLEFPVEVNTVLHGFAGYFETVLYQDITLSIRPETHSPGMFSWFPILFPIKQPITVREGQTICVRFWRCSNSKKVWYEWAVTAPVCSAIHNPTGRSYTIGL
PRMT5, sequence (Q9BQA1 whole entry partner, species assumed): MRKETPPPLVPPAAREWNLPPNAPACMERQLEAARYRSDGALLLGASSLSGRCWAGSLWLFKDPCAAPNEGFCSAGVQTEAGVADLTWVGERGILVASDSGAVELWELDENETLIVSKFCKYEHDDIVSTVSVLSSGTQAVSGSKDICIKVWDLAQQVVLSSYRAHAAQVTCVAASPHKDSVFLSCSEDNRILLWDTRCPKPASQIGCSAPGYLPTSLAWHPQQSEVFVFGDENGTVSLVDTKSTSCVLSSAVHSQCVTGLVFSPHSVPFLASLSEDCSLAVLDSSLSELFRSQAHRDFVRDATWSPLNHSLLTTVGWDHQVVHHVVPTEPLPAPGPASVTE

Regarding `NCCNCc1ccc(-c2ccc3ncn(Cc4cccc(C(=O)NC5CC5)c4)c3c2)cc1` [Compound 342], the values for the IC50 on PRMT5 and on Human CARM1 (PRMT4) were 110 nM and 6480 nM, respectively.

For `NCCNCc1ccc(-c2ccc3ncn(Cc4cccc(C(=O)NC5CCCC5)c4)c3c2)cc1` [Compound 332], the values for the IC50 at PRMT5 and at Human CARM1 (PRMT4) were 85.9 nM and 2840 nM, respectively.

`CC(C)n1ncc2c(C(=O)N(C)Cc3cccc(Cl)c3)cc(-c3cccc(CN(C)CCN)c3)nc21` [Compound 266]: the IC50 stood at 1790 nM on PRMT5 and 74.9 nM at Human CARM1 (PRMT4).

For the compound `CN1CCN(C(=O)c2cccc(Cn3cnc4ccc(-c5ccc(CNCCN)cc5)cc43)c2)CC1` [Compound 329], the IC50 stood at 136 nM at PRMT5 and 2480 nM on Human CARM1 (PRMT4).

In the case of `CNCCN(C)Cc1cccc(-c2cc(C(=O)N(C)Cc3cccc(F)c3)c3cnn(C(C)C)c3n2)c1` [Compound 244], the IC50 on PRMT5 stood at 2830 nM; at Human CARM1 (PRMT4), 53.1 nM.

With `NCCNCc1ccc(-c2ccc3ncn(CCc4cccc(Cl)c4)c3c2)cc1` [Compound 336], the figures for the IC50 at PRMT5 and at Human CARM1 (PRMT4) were 66.5 nM and 5120 nM, respectively.

Consider `CN1CCCC(Cn2cnc3ccc(-c4ccc(CNCCN)cc4)cc32)C1` (stereo not shown) [Compound 338], for which the IC50 on PRMT5 is 439 nM; on Human CARM1 (PRMT4) it was 5530 nM.

With `CN1CCCN(C(=O)c2cccc(Cn3cnc4ccc(-c5ccc(CNCCN)cc5)cc43)c2)CC1` [Compound 331], the figures for the half-maximal inhibitory concentration (IC50) at PRMT5 and on Human CARM1 (PRMT4) were 118 nM and 2810 nM, respectively.

As to `CN(C(=O)c1cccc(Cn2cnc3ccc(-c4ccc(CNCCN)cc4)cc32)c1)C1CCCC1` [Compound 346], the IC50 was 116 nM at PRMT5 and 10000 nM on Human CARM1 (PRMT4).

For `N#Cc1ccc(Cn2cnc3ccc(-c4ccc(CNCCN)cc4)cc32)cc1` [Compound 344], the IC50 came out at 67.6 nM at PRMT5 and 8960 nM on Human CARM1 (PRMT4).

For the compound `CS(=O)(=O)c1ccc(Cn2cnc3ccc(-c4ccc(CNCCN)cc4)cc32)cc1` [Compound 340], the values for the IC50 on PRMT5 and on Human CARM1 (PRMT4) were 105 nM and 5940 nM, respectively.

In the case of `CNCCN(C)Cc1cccc(-c2cc(C(=O)N(C)Cc3ccccc3F)c3cnn(C(C)C)c3n2)c1` [Compound 304], the IC50 on PRMT5 is 670 nM; on Human CARM1 (PRMT4) it was 239 nM.

For `CNCCN(C)Cc1cccc(-c2cc(C(=O)N[C@@H](C)c3ccccc3)c3cnn(Cc4ccccc4)c3n2)c1` [Compound 281], the 50% inhibitory concentration (IC50) on PRMT5 is 17400 nM; at Human CARM1 (PRMT4), 128 nM.

In the case of `CC(C)n1ncc2c(C(=O)N3CCc4ccccc4C3)cc(-c3cccc(CNCCN)c3)nc21` [Compound 269], the IC50 at PRMT5 is 13100 nM; on Human CARM1 (PRMT4), 79.9 nM.

On to `CNCCN(C)Cc1cccc(-c2cc(C(=O)N[C@@H](C)c3ccccc3)c3cnn(Cc4ccccc4F)c3n2)c1` [Compound 283], for which the values for the IC50 at PRMT5 and on Human CARM1 (PRMT4) were 29200 nM and 131 nM, respectively.

As for `CC(C)n1ncc2c(C(=O)NCc3cccc(F)c3)cc(-c3cccc(CN(C)CCN)c3)nc21` [Compound 251], the IC50 on PRMT5 stood at 47300 nM; at Human CARM1 (PRMT4), 59.1 nM.

For the compound `NCCNCc1ccc(-c2ccc3cnn(Cc4cccc(Oc5ccccc5)c4)c3c2)cc1` [Compound 334], the IC50 on PRMT5 came to 467 nM; at Human CARM1 (PRMT4), 3130 nM.

On to `CN(C)C(=O)c1cccc(Cn2cnc3ccc(-c4ccc(CNCCN)cc4)cc32)c1` [Compound 341], for which the IC50 is 87.3 nM on PRMT5 and 6080 nM at Human CARM1 (PRMT4).

On to `NCCNCc1ccc(-c2ccc3ncn(Cc4cccc(C(=O)Nc5cccc6c5CCCC6)c4)c3c2)cc1` [Compound 328], for which the IC50 at PRMT5 was found to be 80.5 nM; at Human CARM1 (PRMT4), 2190 nM.

Regarding `CN1CCN(CCNC(=O)c2cccc(Cn3cnc4ccc(-c5ccc(CNCCN)cc5)cc43)c2)CC1` [Compound 333], the IC50 at PRMT5 was determined as 94.7 nM; at Human CARM1 (PRMT4) it was 3060 nM.

`CC(=O)c1cccc(Cn2ncc3ccc(-c4ccc(CNCCN)cc4)cc32)c1` [Compound 343]: the IC50 on PRMT5 was 119 nM; at Human CARM1 (PRMT4), 8890 nM.

In the case of `NCCNCc1ccc(-c2ccc3ncn(Cc4cccc(C(=O)Nc5ccccc5)c4)c3c2)cc1` [Compound 330], the IC50 was 52.4 nM on PRMT5 and 2720 nM on Human CARM1 (PRMT4).

Take `CC(C)n1ncc2c(C(=O)N(C)Cc3ccccc3F)cc(-c3cccc(CN(C)CCN)c3)nc21` [Compound 250]: the IC50 amounted to 816 nM at PRMT5 and 58.3 nM at Human CARM1 (PRMT4).

Turning to `CNCCN(C)Cc1cccc(-c2cc(C(=O)N(C)C(C)c3ccccc3)c3cnn(C(C)C)c3n2)c1` (stereo not shown) [Compound 246], the IC50 at PRMT5 was 577 nM; at Human CARM1 (PRMT4), 54.3 nM.

As for `CNCCN(C)Cc1cccc(-c2cc(C(=O)N[C@@H](C)c3ccccc3)c3cnn(-c4ccccn4)c3n2)c1` [Compound 303], the IC50 on PRMT5 is 13300 nM; at Human CARM1 (PRMT4), 235 nM.

In the case of `CC(C)n1ncc2c(C(=O)N(C)[C@@H](C)c3ccccc3)cc(-c3cccc(CN(C)CCN)c3)nc21` [Compound 193], the IC50 at PRMT5 was 790 nM; on Human CARM1 (PRMT4), 13.5 nM.

As to `COCCNC(=O)c1cccc(Cn2cnc3ccc(-c4ccc(CNCCN)cc4)cc32)c1` [Compound 345], the results for the 50% inhibitory concentration (IC50) at PRMT5 and at Human CARM1 (PRMT4) were 114 nM and 9390 nM, respectively.

Take `NCCNCc1ccc(-c2ccc3ncn(Cc4cccc(C(=O)NC5CCOCC5)c4)c3c2)cc1` [Compound 347]: the figures for the IC50 on PRMT5 and at Human CARM1 (PRMT4) were 181 nM and 10000 nM, respectively.

`CC(C)n1ncc2c(C(=O)N(C)Cc3ccccc3Cl)cc(-c3cccc(CN(C)CCN)c3)nc21` [Compound 242]: the values for the IC50 on PRMT5 and at Human CARM1 (PRMT4) were 235 nM and 51.9 nM, respectively.

On to `CNCCN(C)Cc1cccc(-c2cc(C(=O)N(C)Cc3cccc(Cl)c3)c3cnn(C(C)C)c3n2)c1` [Compound 237], for which the IC50 at PRMT5 is 1480 nM; at Human CARM1 (PRMT4) it was 48.1 nM.

With `CC(C)n1ncc2c(C(=O)N(C)Cc3ccc(F)cc3)cc(-c3cccc(CN(C)CCN)c3)nc21` [Compound 240], the IC50 on PRMT5 is 7420 nM; at Human CARM1 (PRMT4) it was 49.7 nM.

In the case of `Cc1cc(C)c(CN2Cc3ccc(-c4ccc(CNCCN)cc4)cc3C2=O)c(=O)[nH]1` [Compound 390], the IC50 is 472 nM on PRMT5 and 17500 nM at Human CARM1 (PRMT4).

A word on the IC50: it is the concentration at which inhibition is half-maximal.
